Reference: patent US20030235583A1, “Combined use of a modulator of CD3 and a beta cell resting compound” (priority 2002, published 2003)

Assays:
[1] = tested on: human islets; test: apoptosis of human islets incubated in high glucose; type: cell-based; details: co-incubated with compound vs not co-incubated
Description: Another potential way to intervene in the destruction of beta-cells in the development of Type 1 diabetes is by treatment with compounds that inhibit insulin secretion, thereby inducing beta-cell rest.

[2] = tested on: beta-cells; details: 3 months treatment; cited from earlier work

Compound | apoptosis, or programmed cell death, of human islets [1] | residual C-peptide, a marker of beta-cell function [2]
CC1(NC2=NS(=O)(=O)c3sc(Cl)cc3N2)CC1 [6-chloro-3-(1-methylcyclopropyl)amino-4H-thieno[3,2-e]-1,2,4-thiadiazine 1,1-dioxide] | significantly less apoptosis | –
CC1=NS(=O)(=O)c2cc(Cl)ccc2N1 [diazoxide] | – | preservation of residual C-peptide
